# Assay results as given in publication PMC4171615, “Discovery of selective inhibitors of Glutaminase-2, which inhibit mTORC1, activate autophagy and inhibit proliferation in cancer cells” (Oncotarget, 2014).
# Where a chain is given by its changes, count along the chain named.
# Experiments:
# KGA_ H519Q/D520K = target: T1, KGA_ H519Q/D520K (Homo sapiens, UniProt O94925, D520K/H519Q); assay: Glutaminase activity assay, KGA mutant H519Q/D520K; type: biochemical
# T1 construct: a KGA cDNA fragment of 1644 bp (residues Leu123-Leu669); His-tag (N); made in house; host or cells: Escherichia coli
# T1 sequence (O94925 123-669 H519Q/D520K): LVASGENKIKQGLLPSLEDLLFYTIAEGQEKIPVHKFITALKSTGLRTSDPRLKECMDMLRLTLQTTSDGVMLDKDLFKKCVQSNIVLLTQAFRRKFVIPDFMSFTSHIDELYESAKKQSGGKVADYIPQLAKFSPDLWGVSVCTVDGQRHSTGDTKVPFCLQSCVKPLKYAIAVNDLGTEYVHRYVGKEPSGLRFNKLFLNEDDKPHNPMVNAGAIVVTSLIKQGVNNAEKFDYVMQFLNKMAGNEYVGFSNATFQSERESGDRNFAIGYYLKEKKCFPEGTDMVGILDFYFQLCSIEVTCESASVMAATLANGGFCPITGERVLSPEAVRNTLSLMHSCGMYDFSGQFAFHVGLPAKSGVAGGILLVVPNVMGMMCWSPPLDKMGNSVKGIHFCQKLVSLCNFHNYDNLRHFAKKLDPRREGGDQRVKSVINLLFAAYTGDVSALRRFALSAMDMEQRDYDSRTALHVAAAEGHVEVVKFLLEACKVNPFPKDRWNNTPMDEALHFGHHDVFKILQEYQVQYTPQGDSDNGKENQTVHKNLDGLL
# Method: (§1) Human glutaminase activity was measured using a two-step assay as described previously. A microtiter assay format was used to facilitate the collection of multiple data points. Typically, 10 μl of compound, which was dissolved in DMSO, was added to 80 μl of an initial assay mix (0.1 mM hKGA, 0.2 mM EDTA and 50 mM Tris/acetate, pH 8.6). Samples were incubated at 25°C for 10 min and then 10 μl of 200 mM glutamine were added to the reaction mix. After adding glutamine, the reactions were incubated at 37°C for 60 min and then quenched by the addition of 10 μl of 0.6 M HCl. Subsequently, 100 μl of a second reaction mixture (3.7 units of purified bovine liver glutamate dehydrogenase, 160 mM Tris/acetate [pH 9.4], 400 mM hydrazine, 5 mM ADP and 2 mM NAD^+) was added to the stopped first reaction mixture and incubated for 30 min at 25°C. The absorbance at 340 nm was measured using a Wallac Victor2V plate reader (PerkinElmer), fitted with a 340 nm excitation filter. Sample absorbance was measured against a blank, containing no human glutaminase.
# Site-directed mutagenesis was performed on the pET28a(+)-GAB or pET28a(+)-KGA plasmids using PfuUltra II Fusion HS DNA polymerase (Agilent Technologies) to create the GAB and KGA mutants. […] The sequence alignment was compared with crystal structure of the GAC (PDB code: 3UO9) and the resulting model of GAB was analyzed using the Swiss-PDB server. […]
# KGA_F318Y/F322S = target: T2, KGA_F318Y/F322S (Homo sapiens, UniProt O94925, F318Y/F322S); assay: Glutaminase activity assay, KGA mutant F318Y/F322S; type: biochemical
# T2 construct: a KGA cDNA fragment of 1644 bp (residues Leu123-Leu669); His-tag (N); made in house; host or cells: Escherichia coli
# T2 sequence (O94925 123-669 F318Y/F322S): T1 sequence (O94925 123-669 H519Q/D520K) with F196Y, F200S, Q397H, K398D
# Method: as §1, with “Typically, 10 μl of compound, which was dissolved in DMSO, was added to 80 μl of an initial assay mix (0.1 mM hKGA, 0.2 mM EDTA and 50 mM Tris/acetate, pH 8.6).” left out
# Site-directed mutagenesis was performed on the pET28a(+)-GAB or pET28a(+)-KGA plasmids using PfuUltra II Fusion HS DNA polymerase (Agilent Technologies) to create the GAB and KGA mutants. The deep view program (Version 3.7) of the Swiss-MODEL server was used to generate the three dimensional structure of homologous modeled GAB. Using the integrated sequence alignment tools and structural superimposition algorithms, the target sequence was mapped on the modeling templates.
smiles,measurement,setting,value
CCCCCCCCCCCCCC(CC1=CC(=O)C=C(OC)C1=O)OC(C)=O (centres unmarked) [AV-1],IC50,KGA_ H519Q/D520K,230 ± 30 nM
same,IC50,KGA_F318Y/F322S,2400 nM
